Two molecules from ChEMBL document CHEMBL1138610, “Peganine hydrochloride dihydrate an orally active antileishmanial agent” (Bioorg Med Chem Lett, 2009) can be followed below.

Structures are written as SMILES. Values after ≈ are worked out from the molar mass of the structure shown. Active and inactive are the calls of the source. No cut-off for these calls is given here.

In data set [1] the test system is Leishmania donovani. The data set is described as follows: Antileishmanial activity against Leishmania donovani promastigotes assessed as inhibition of parasite multiplication at 10 ug/ml. More on the design: scale not given: the % may be the effect or the level left. The format is functional.
In data set [2] the test system is Leishmania donovani. The data set is described as follows: Antileishmanial activity against Leishmania donovani amastigote infected in mouse J774A1 cells expressing green fluorescence protein by flow cytometry. The data set is classed as functional, organism-based. The note with it: J774.A1.
Data set [3] concerns Leishmania donovani. The data set is described as follows: Antileishmanial activity against Leishmania donovani amastigote infected in mouse J774A1 cells expressing green fluorescence protein assessed as decrease in mean fluorescence intensity up to 25 ug/ml. The note with it: J774.A1. The data set is classed as functional, organism-based.
In data set [4] the test system is Leishmania donovani. The data set is described as follows: Antileishmanial activity against Leishmania donovani infected in hamster assessed inhibition of parasite growth at 40 mg/kg, po after 5 days. The format is functional. More on the design: scale not given: the % may be the effect or the level left.
In data set [5] the test system is Leishmania donovani. The data set is described as follows: Antileishmanial activity against Leishmania donovani infected in hamster assessed inhibition of parasite growth at 200 mg/kg, po after 5 days. Also noted: scale not given: the % may be the effect or the level left. The format is functional.
The test system of the next data set is J774.A1. The data set is described as follows: Cytotoxicity against mouse J774A1 cells at 200 uM after 48 hrs by MTT assay. The data set is classed as cell-based. The note with it: j774.a1, 48 h. On the technique in general: Tetrazolium assays rely on reduction of a dye to a coloured formazan, in cell work by metabolically active cells.
The subject of data set [6] is Leishmania donovani. The data set is described as follows: Antileishmanial activity against Leishmania donovani infected in hamster assessed inhibition of parasite growth at 100 mg/kg, po after 5 days. The format is functional. Also noted: scale not given: the % may be the effect or the level left.
Data set [7] relates to Leishmania donovani. The data set is described as follows: Antileishmanial activity against Leishmania donovani infected in hamster assessed inhibition of parasite growth at 50 mg/kg, po after 5 days. The data set is classed as functional, organism-based. More on the design: dose 50 mg/kg.
Data set [8] relates to Leishmania donovani. The data set is described as follows: Antileishmanial activity against Leishmania donovani promastigotes expressing green fluorescence protein by flow cytometry. The format is functional. (In general: Flow cytometry measures light scatter and fluorescence of single cells or particles in a stream.)
Data set [9] concerns Leishmania donovani. The experiment in a line: Antileishmanial activity against Leishmania donovani amastigote infected in mouse J774A1 cells expressing green fluorescence protein assessed as decrease in mean fluorescence intensity at 30 to 100 ug/ml. The format is functional, organism-based. The note with it: J774.A1.
Data set [10] deals with Leishmania donovani. The experiment in a line: Antileishmanial activity against Leishmania donovani promastigotes expressing green fluorescence protein assessed as decrease in mean fluorescence intensity. The format is functional, organism-based.

`CCCCCCCCCCCCCCCCOP(=O)([O-])OCC[N+](C)(C)C` [MILTEFOSINE]: the Activity in the data set on Leishmania donovani [1] is on record as 50%. The IC50 (usually the midpoint of a concentration-inhibition curve) with Leishmania donovani [2] came out at 5 µg/mL (≈ 12.3 µM).

For `Cl.OC1CCN2Cc3ccccc3N=C12` (stereo not given) [PEGANINE HYDROCHLORIDE], the outcome in the data set with Leishmania donovani [3] and with Leishmania donovani [9] was Active. The Activity with Leishmania donovani [4] was 95.5%; in the data set on Leishmania donovani [5], 87.5%; in the data set on J774.A1, “Non-toxic”; in the data set with Leishmania donovani [6] it was 79.6%; in the data set on Leishmania donovani [8], 50%; in the data set on Leishmania donovani [10], “Dose-dependent effect”. Moreover, the result in the data set with Leishmania donovani [7] was inactive. The IC50 in the data set on Leishmania donovani [2] was determined as 41 µg/mL; in the data set with Leishmania donovani [10] it was 38 µg/mL. The 90% effect concentration (IC90) (commonly the concentration at which the effect reaches the 90% level) in the data set with Leishmania donovani [2] is 85 µg/mL; in the data set with Leishmania donovani [10], 75 µg/mL.
